Results as given in patent publication US20260250318A1, “COMPOSITIONS AND METHODS FOR CROSSING THE BLOOD BRAIN BARRIER” (VOYAGER THERAPEUTICS, INC., priority 2022, published 2026).

Assays:
Conditions in all cases: synthetic library passage 3, intravenous, relative to wild-type AAV9
brain [1] = assay: NGS fold enrichment of synthetic library (passage 3) in BALB/c mice, first cross-species screen; type: in vivo
Outline: (§1)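 Passage-3 synthetic capsid library given intravenously […] to NHPs (2-4 years) and BALB/c or C57Bl/6 mice (n=3, 6-8 weeks). After e.g. 28 days, tissue RNA was RT-PCR amplified and NGS-sequenced; values are fold enrichment of each variant relative to wild-type AAV9.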

[2] = system: brain, spinal cord, and DRG of the NHPs; assay: NGS fold enrichment of synthetic library (passage 3) in NHPs, first cross-species screen; type: in vivo, cynomolgus macaques (Macaca fascicularis)
Outline: as §1

brain [3] = assay: NGS fold enrichment of synthetic library (passage 3) in C57Bl/6 mice, first cross-species screen; type: in vivo
Outline: as §1

[4] = RNA from brain of BALB/c mice, NGS
[5] = RNA from spinal cord of NHPs, NGS
[6] = RNA from brain of C57Bl/6 mice, NGS

| Sequence | Fold enrichment over AAV9 in the brain of Mice (BALB/c) (brain [1]; RNA NGS, brain of BALB/c mice) [fold] | Fold enrichment over AAV9 in the brain of NHPs ([2]; RNA NGS, brain of NHPs) [fold] | Fold enrichment over AAV9 in the spinal cord of NHPs ([2]; RNA NGS, spinal cord of NHPs) [fold] | Fold enrichment over AAV9 in the brain of Mice (C57Bl/6) (brain [3]; RNA NGS, brain of C57Bl/6 mice) [fold] | Fold enrichment over AAV9 in the brain of Mice (BALB/c) (brain [1]; [4]) [fold] | Fold enrichment over AAV9 in the brain of NHPs ([2]; RNA from brain of NHPs, NGS) [fold] | Fold enrichment over AAV9 in the spinal cord of NHPs [2, 5] [fold] | Fold enrichment over AAV9 in the brain of Mice (C57Bl/6) (brain [3]; [6]) [fold] |
| --- | --- | --- | --- | --- | --- | --- | --- | --- |
| GSGQSVQTVVNQQT | 0.240 | 3.057 | 5.441 | 0.582 | – | – | – | – |
| GSGQSYDMRGNQQT | – | – | – | – | 0.368 | 1.248 | 0.567 | 0.588 |
| GSGQSYQRDHNQQT | 0.323 | 1.859 | 8.013 | 0.779 | – | – | – | – |
| GSGQSYTMTQNQQT | 0.231 | 2.136 | 6.755 | 0.297 | – | – | – | – |
| GSGQTARNGINQQT | – | – | – | – | 0.472 | 1.192 | 2.030 | 1.002 |
| GSGQTHGGQHNQQT | 1.098 | 2.125 | 12.251 | 1.448 | – | – | – | – |
| GSGQTQVLKSNQQT | 0.975 | 1.640 | 3.031 | 1.599 | – | – | – | – |
| GSGQTRMPLANQQT | – | – | – | – | 0.273 | 1.296 | 0.790 | 0.447 |
| GSGQTRQMKDNQQT | 0.214 | 1.530 | 11.079 | 0.841 | – | – | – | – |
| GSGQTSGLKQNQQT | 0.334 | 1.968 | 3.927 | 0.394 | – | – | – | – |
| GSGQTVVRIANQQT | 0.390 | 1.046 | 4.156 | 0.661 | – | – | – | – |
| GSGQVAYAQGNQQT | – | – | – | – | 0.313 | 1.259 | 1.309 | 0.734 |
| GSGQVGRLLQNQQT | 0.748 | 1.899 | 1.762 | 0.773 | – | – | – | – |
| GSGQVHASQVNQKT | 0.767 | 1.049 | 0.503 | 0.855 | – | – | – | – |
| GSGQVHNPTQNQQT | – | – | – | – | 0.542 | 1.410 | 2.488 | 1.021 |
| GSGQVHQAEVNQQT | 0.287 | 1.825 | 0.152 | 0.436 | – | – | – | – |
| GSGQVVAHVGNQQT | 0.321 | 1.901 | 0.833 | 0.800 | – | – | – | – |
| GSGQVVGLSGNQQT | 0.881 | 2.052 | 7.212 | 0.785 | – | – | – | – |
| GSGQVYISTPNQQT | – | – | – | – | 0.282 | 1.367 | 0.000 | 0.859 |
| GSGQYANHGINQQT | 0.701 | 1.820 | 5.717 | 0.906 | – | – | – | – |
